Measured values from patent US9944666B2, “Compounds that are S1P modulating agents and/or ATX modulating agents” (BIOGEN MA INC., priority 2012, dated 2018).

Target: T1, Human ATX protein (Homo sapiens, UniProt Q13822)
T1 construct: made in house
Assay: ATX biochemical FRET assay with FS-3 substrate
Conditions: FS-3 2 μM, ATX 1.0 μg/mL, room temperature 2 hours, fluorescence 485/538 nm
Source text: ATX (Autotaxin) is a 125 KDa glycoprotein with lysophospholipase D (LPLD) activity that generates the bioactive lipid lysophosphatidic acid (LPA) from lysophosphatidylcholine (LPC). The ATX biochemical assay utilizes a FRET (fluorescence resonance energy transfer) technology platform. The fluorescence signal of FRET substrate FS-3 is quenched due to intra-molecular FRET of a fluorophore to a non-fluorescing quencher (Ferguson, C. G., et al., Org Lett. 2006 May 11; 8(10): 2023-2026, which is incorporated by reference in its entirety). ATX catalyzes the hydrolysis of the substrate which separates the dabsyl quencher from the fluorescein reporter, which becomes fluorescent. The reaction is monitored by a SpectraMax M5 (Molecular Devices, Sunnyvale, Calif.) with at excitation wavelength 485 nm and emission wavelength […].
Fatty acid free-BSA (Sigma A8806): 10 mg/ml, in H2O, stored at 4° C.
2×ATX assay buffer: 100 mM Tris, 280 mM NaCl, 10 mM KCl, 2 mM CaCl2, 2 mM MgCl2, pH 7.4.
Human ATX protein: expressed and purified in house. Stored at −80° C.
Substrate FS-3 (Echelon, L-2000): 100 μg in 77.74 μL H2O (1 mM stock), stored at −20° C.
384-well flat bottom plates—Corning #3575.
Compound dilution—All compounds were provided at 10 mM in 100% DMSO. In the first well, 2 μL of 10 mM compound was added to 78 μL of DMSO (1:40 dilution). In subsequent wells 3-fold dilution (total 10 dilutions) were performed.
1×ATX assay buffer was made up with a final concentration of 1 mg/mL fatty acid free-BSA using 2×ATX assay buffer, 10 mg/ml fatty acid free-BSA and ddH2O.
ATX protein was diluted with 1×ATX assay buffer to a concentration of 1.32 μg/mL (1.32×). 38 μL was added per well to the assay plate. The final concentration of ATX in the reaction as 1.0 μg/mL.
2 μL per well of compounds was transferred to provide the desired concentration. The plate was centrifuged, then incubated at room temperature for 30 minutes on the shaker.
FS-3 was diluted with 1×ATX assay buffer to a concentration of FS-3 of 10 μM (5×). Then, 10 μL was added per well to the assay plate. The final concentration of FS-3 in the reaction was 2 μM. The plate was centrifuged. The plate was kept shaking at room temperature for 2 hours. Because FS-3 substrate is light sensitive, plates were kept covered and protected from light.
Fluorescence was measured using SpectraMax M5 (excitation at 485 nm/emission at 538 nm, top read).

| SMILES | IC50 [nM] |
| --- | --- |
| CC(c1ccc2c(C(F)F)c(O[C@H]3CC[C@@H](C)CC3)ccc2c1)N1C2CCC1CC(C(=O)O)C2 (single isomer, unassigned; enantiomer 1) [Example 136, 8-(1-(5-(difluoromethyl)-6-((cis-4-methylcyclohexyl)oxy)naphthalen-2-yl)ethyl)-8-azabicyclo[3.2.1]octane-3-carboxylic acid, enantiomer 1] | ≤ 100 |
| CC[C@H]1CC[C@@H](Oc2ccc3cc(CN4C5CCC4CC(C(=O)O)C5)ccc3c2C#N)CC1 (stereo partly drawn) [Example 200, 8-((5-cyano-6-((cis-4-ethylcyclohexyl)oxy)naphthalen-2-yl)methyl)-8-azabicyclo[3.2.1]octane-3-carboxylic acid] | ≤ 500 |
| CC[C@H]1CC[C@@H](Oc2ccc3cc(C(C)N4C5CCCC4CC(C(=O)O)C5)ccc3c2C#N)CC1 (stereo partly drawn) [Example 213, 9-(1-(5-cyano-6-((cis-4-ethylcyclohexyl)oxy)naphthalen-2-yl)ethyl)-9-azabicyclo[3.3.1]nonane-3-carboxylic acid] | ≤ 100 |
| CCC(c1ccc2c(Cl)c(O[C@H]3CC[C@@H](C)CC3)ccc2c1)N1C2CCCC1CC(C(=O)O)C2 (stereo partly drawn) [Example 211, 9-(1-(5-chloro-6-((cis-4-methylcyclohexyl)oxy)naphthalen-2-yl)propyl)-9-azabicyclo[3.3.1]nonane-3-carboxylic acid] | ≤ 100 |
| C[C@H]1CC[C@@H](Nc2ncc3cc(CN4C5CCCC4CC(C(=O)O)C5)ccc3c2Cl)CC1 (stereo partly drawn) [Example 271, 9-((4-chloro-3-((cis-4-methylcyclohexyl)amino)isoquinolin-7-yl)methyl)-9-azabicyclo[3.3.1]nonane-3-carboxylic acid] | ≤ 500 |
| CC(C)(C)[C@H]1CC[C@H](Nc2ncc3cc(C(=O)N4C5CCC4CC(C(=O)O)C5)ccc3n2)CC1 (stereo partly drawn) [Example 262, 8-(2-((trans-4-(tert-butyl)cyclohexyl)amino)quinazoline-6-carbonyl)-8-azabicyclo[3.2.1]octane-3-carboxylic acid] | ≤ 100 |
| O=C(O)C12CCC(NCc3ccc4c(C(F)(F)F)c(OC5CCC(C(F)(F)F)CC5)ccc4c3)(CC1)CC2 (stereo not shown) [Example 144, 3-(4-{[5-trifluoromethyl-6-(4-trifluoromethyl-cyclohexyloxy)-naphthalen-2-ylmethyl]-amino}-bicyclo[2.2.2]oct-1-yl)-carboxylic acid] | ≤ 500 |
| CCC(c1ccc2c(C#N)c(O[C@H]3CC[C@@H](C)CC3)ccc2c1)N1C2CCC1CC(C(=O)O)C2 (stereo partly drawn) [Example 226, 8-(1-(5-cyano-6-((cis-4-methylcyclohexyl)oxy)naphthalen-2-yl)propyl)-8-azabicyclo[3.2.1]octane-3-carboxylic acid] | ≤ 100 |
| C[C@H]1CC[C@H](Nc2cc3ccc(C(=O)N4C5CCC4CC(C(=O)O)C5)cc3cn2)CC1 (stereo partly drawn) [Example 264, 8-(3-((trans-4-methylcyclohexyl)amino)isoquinoline-7-carbonyl)-8-azabicyclo[3.2.1]octane-3-carboxylic acid] | ≤ 500 |
| CCC(c1ccc2c(C(F)(F)F)c(O[C@H]3CC[C@@H](C(C)(F)F)CC3)ccc2c1)N1C2CCC1CC(C(=O)O)C2 (stereo partly drawn) [Example 204, 8-(1-(6-((cis-4-(1,1-difluoroethyl)cyclohexyl)oxy)-5-(trifluoromethyl)naphthalen-2-yl)propyl)-8-azabicyclo[3.2.1]octane-3-carboxylic acid] | ≤ 100 |
| CCC(c1ccc2c(Cl)c(O[C@H]3CC[C@@H](C)CC3)ccc2c1)N1C2CCC1CC(C(=O)O)C2 (stereo partly drawn) [Example 210, 8-(1-(5-chloro-6-((cis-4-methylcyclohexyl)oxy)naphthalen-2-yl)propyl)-8-azabicyclo[3.2.1]octane-3-carboxylic acid] | ≤ 100 |
| C[C@H]1CC[C@@H](Oc2ccc3cc(CN4C5CCCC4CC(C(=O)O)C5)ncc3c2Br)CC1 (stereo partly drawn) [Example 279, 9-((8-bromo-7-((cis-4-methylcyclohexyl)oxy)isoquinolin-3-yl)methyl)-9-azabicyclo[3.3.1]nonane-3-carboxylic acid] | ≤ 500 |
| CCC(c1ccc2c(Cl)c(O[C@H]3CC[C@@H](CC)CC3)ccc2c1)N1C2CCCC1CC(C(=O)O)C2 (stereo partly drawn) [Example 237, 9-(1-(5-chloro-6-((cis-4-ethylcyclohexyl)oxy)naphthalen-2-yl)propyl)-9-azabicyclo[3.3.1]nonane-3-carboxylic acid] | ≤ 250 |
| CCC(c1ccc2c(C(F)(F)F)c(O[C@H]3CC[C@@H](C(F)(F)F)CC3)ccc2c1)N1C2CCCC1CC(C(=O)O)C2 (relative stereo) [Example 177, 9-(1-(6-((cis-4-trifluoromethylcyclohexyl)oxy)-5-(trifluoromethyl)naphthalen-2-yl)propyl)-9-azabicyclo[3.3.1]nonane-3-carboxylic acid] | ≤ 100 |
| CC[C@@H](c1ccc2c(C(F)(F)F)c(O[C@H]3CC[C@@H](CC)CC3)ccc2c1)N1C2CCC1CC(C(=O)O)C2 (single isomer, unassigned) [Example 294] | ≤ 100 |
| CC[C@H]1CC[C@@H](Oc2ccc3cc(C(=O)N4C5CCCC4CC(C(=O)O)C5)ccc3c2Cl)CC1 (stereo partly drawn) [Example 227, 9-(5-chloro-6-((cis-4-ethylcyclohexyl)oxy)-2-naphthoyl)-9-azabicyclo[3.3.]nonane-3-carboxylic acid] | ≤ 100 |
| C[C@@H](c1ccc2c(C(F)(F)F)c(O[C@H]3CC[C@@H](C(F)(F)F)CC3)ccc2c1)N1C2CCCC1CC(C(=O)O)C2 (single isomer, unassigned) [Example 90] | ≤ 100 |
| CC[C@H]1CC[C@@H](Oc2ccc3cc(C(=O)N4C5CCC4CC(C(=O)O)C5)ccc3c2C#N)CC1 (stereo partly drawn) [Example 223, 8-(5-cyano-6-((cis-4-ethylcyclohexyl)oxy)-2-naphthoyl)-8-azabicyclo[3.2.1]octane-3-carboxylic acid] | ≤ 100 |
| C[C@H]1CC[C@@H](Oc2ccc3cc(C(=O)N4C5CCCC4CC(C(=O)O)C5)ccc3c2C(F)(F)F)CC1 (relative stereo) [Example 125, 9-(6-((cis-4-Methylcyclohexyl)oxy)-5-(trifluoromethyl)-2-naphthoyl)-9-azabicyclo[3.3.1]nonane-3-carboxylic acid] | ≤ 250 |
| O=C(O)C1CC12CN(Cc1ccc3c(C(F)(F)F)c(O[C@H]4CC[C@@H](C(F)(F)F)CC4)ccc3c1)C2 (relative stereo) [Example 149, 2-((5-(trifluoromethyl)-6-((cis-4-(trifluoromethyl)cyclohexyl)oxy)naphthalen-2-yl)methyl)-2-azaspiro[3.2]hexane-5-carboxylic acid] | ≤ 250 |
| O=C(O)C1CC2CC(O)CC(C1)N2Cc1ccc2c(C(F)(F)F)c(O[C@H]3CC[C@@H](C(F)(F)F)CC3)ccc2c1 (relative stereo) [Example 169, 9-(5-trifluoromethyl-6-(cis-4-trifluoromethyl-cyclohexyloxy)-naphthalen-2-ylmethyl)-7-hydroxy-9-azabicyclo[3.3.1]nonane-3-carboxylic acid] | ≤ 500 |
| CCC(c1ccc2c(C#N)c(O[C@H]3CC[C@@H](CC)CC3)ccc2c1)N1C2CCC1CC(C(=O)O)C2 (stereo partly drawn) [Example 220, 8-(1-(5-cyano-6-((cis-4-ethylcyclohexyl)oxy)naphthalen-2-yl)propyl)-8-azabicyclo[3.2.1]octane-3-carboxylic acid] | ≤ 100 |
